Experimental findings from PubChem BioAssay AID252 (DTP/NCI, 2004) are described below.

“And” between values parts separate entries of the source, which are not always exact repeats. Equal entries are not always repeated. Toxic doses and inconclusive results are not listed.

For this assay, the system named is BDF1 mice, intracerebral L1210 leukemia, survival T/C. The experiment in a line: NCI In Vivo Anticancer Drug Screen. Data for tumor model L1210 Leukemia (intracerebral) in B6D2F1 (BDF1) mice. To be noted: higher = longer survival. An outline of the steps:
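Mice carrying transplanted tumour were dosed with compound; survival was recorded and expressed as treated-group value (T) divided by vehicle-control value (C).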

[1] abbreviates: endpoint: mean survival time, dose: 15.0 mg/kg/injection, schedule: Q01DX001 (ip), vehicle: other.

As to `OC(C1CO1)C(O)C1CO1` (centres undefined), the T/C is 96 % of control (endpoint: mean survival time, dose: 0.65 mg/kg/injection, schedule: Q01DX009 (ip), vehicle: water); 109 % of control and 120 % of control (endpoint: mean survival time, dose: 1.0 mg/kg/injection, schedule: Q01DX009 (ip), vehicle: saline); 110 % of control (endpoint: mean survival time, dose: 1.08 mg/kg/injection, schedule: Q01DX009 (ip), vehicle: water); 123 % of control (endpoint: mean survival time, dose: 1.8 mg/kg/injection, schedule: Q01DX009 (ip), vehicle: water); 92 % of control (endpoint: mean survival time, dose: 2.0 mg/kg/injection, schedule: Q01DX009 (ip), vehicle: saline); 87 % of control (endpoint: mean survival time, dose: 2.0 mg/kg/injection, schedule: Q03HX024 (ip), vehicle: saline). In addition, the T/C was 109 % of control (endpoint: mean survival time, dose: 2.5 mg/kg/injection, schedule: Q01DX001 (ip), vehicle: water); 103 % of control and 92 % of control (endpoint: mean survival time, dose: 4.0 mg/kg/injection, schedule: Q01DX009 (ip), vehicle: saline); 104 % of control (endpoint: mean survival time, dose: 20.0 mg/kg/injection, schedule: Q01DX001 (ip), vehicle: water); 102 % of control (endpoint: mean survival time, dose: 40.0 mg/kg/injection, schedule: Q01DX001 (ip), vehicle: water); 106 % of control (endpoint: median survival time, dose: 0.5 mg/kg/injection, schedule: Q01DX001 (oral), vehicle: saline); 115 % of control (endpoint: median survival time, dose: 4.0 mg/kg/injection, schedule: Q01DX001 (oral), vehicle: saline). The T/C runs as follows: (endpoint: median survival time, dose: 8.0 mg/kg/injection, schedule: Q01DX001 (oral), vehicle: saline) 97 % of control; (endpoint: median survival time, dose: 16.0 mg/kg/injection, schedule: Q01DX001 (oral), vehicle: saline) 86 % of control.

On to `O=C(O)CCCc1ccc(N(CCCl)CCCl)cc1`, for which the T/C was 105 % of control (endpoint: mean survival time, dose: 18.0 mg/kg/injection, schedule: Q01DX001 (ip), vehicle: carboxymethylcellulose (CMC)); 112 % of control (endpoint: mean survival time, dose: 27.0 mg/kg/injection, schedule: Q01DX001 (ip), vehicle: carboxymethylcellulose (CMC)); 112 % of control (endpoint: mean survival time, dose: 41.0 mg/kg/injection, schedule: Q01DX001 (ip), vehicle: carboxymethylcellulose (CMC)).

As for `O=NN(CCF)C(=O)NC1CSCSC1`, the T/C (endpoint: mean survival time, dose: 3.7 mg/kg/injection, schedule: Q01DX001 (ip), vehicle: other) is 111 % of control; the T/C (endpoint: mean survival time, dose: 7.0 mg/kg/injection, schedule: Q01DX001 (ip), vehicle: other) is 120 % of control and 123 % of control; the T/C under setting [1] was 163 % of control; the T/C (endpoint: mean survival time, dose: 28.0 mg/kg/injection, schedule: Q01DX001 (ip), vehicle: other) was 176 % of control; the T/C (endpoint: mean survival time, dose: 31.0 mg/kg/injection, schedule: Q01DX001 (ip), vehicle: other) is 177 % of control and 278 % of control; the T/C (endpoint: mean survival time, dose: 41.0 mg/kg/injection, schedule: Q01DX001 (ip), vehicle: other) is 291 % of control. Where the note is “endpoint: mean survival time, dose: 62.0 mg/kg/injection, schedule: Q01DX001 (ip), vehicle: other”, the T/C was 290 % of control and 337 % of control.

On to `NC(Cc1ccc(N(CCCl)CCCl)cc1)C(=O)O` (centres undefined), for which the T/C was 119 % of control (endpoint: mean survival time, dose: 8.0 mg/kg/injection, schedule: Q01DX001 (ip), vehicle: carboxymethylcellulose (CMC)) and 117 % of control (endpoint: mean survival time, dose: 12.0 mg/kg/injection, schedule: Q01DX001 (ip), vehicle: carboxymethylcellulose (CMC)).

Take `CC[n+]1ccc(Nc2ccc(NC(=O)c3ccc(Nc4cc[n+](CC)c5ccc(N)cc45)cc3)cc2)cc1`: the T/C (endpoint: mean survival time, dose: 1.0 mg/kg/injection, schedule: Q01DX009 (ip), vehicle: water) is 100 % of control; the T/C (endpoint: mean survival time, dose: 2.0 mg/kg/injection, schedule: Q01DX009 (ip), vehicle: water) was 102 % of control; the T/C (endpoint: mean survival time, dose: 4.0 mg/kg/injection, schedule: Q01DX009 (ip), vehicle: water) was 111 % of control; the T/C (endpoint: mean survival time, dose: 8.0 mg/kg/injection, schedule: Q01DX009 (ip), vehicle: water) is 97 % of control.

Regarding `O=NN(CCCl)C(=O)NC1C=CCCC1` (centres undefined), the T/C by setting is: under setting [1], 110 % of control; (endpoint: mean survival time, dose: 20.0 mg/kg/injection, schedule: Q01DX001 (ip), vehicle: other) 118 % of control; (endpoint: mean survival time, dose: 25.0 mg/kg/injection, schedule: Q01DX001 (ip), vehicle: other) 122 % of control; (endpoint: mean survival time, dose: 30.0 mg/kg/injection, schedule: Q01DX001 (ip), vehicle: other) 118 % of control; (endpoint: mean survival time, dose: 35.0 mg/kg/injection, schedule: Q01DX001 (ip), vehicle: other) 123 % of control.

Turning to `O=C(Nc1ccc(C2=NCCN2)cc1)c1ccc(C(=O)Nc2ccc(C3=NCCN3)cc2)cc1`, the T/C reads like this: (endpoint: mean survival time, dose: 50.0 mg/kg/injection, schedule: Q01DX Z (ip), vehicle: carboxymethylcellulose (CMC)) 107 % of control; (endpoint: mean survival time, dose: 100.0 mg/kg/injection, schedule: Q01DX Z (ip), vehicle: carboxymethylcellulose (CMC)) 110 % of control; (endpoint: mean survival time, dose: 200.0 mg/kg/injection, schedule: Q01DX Z (ip), vehicle: carboxymethylcellulose (CMC)) 121 % of control; (endpoint: mean survival time, dose: 250.0 mg/kg/injection, schedule: Q01DX Z (ip), vehicle: carboxymethylcellulose (CMC)) 116 % of control; (endpoint: mean survival time, dose: 375.0 mg/kg/injection, schedule: Q01DX Z (ip), vehicle: carboxymethylcellulose (CMC)) 97 % of control.

For the compound `CS(=O)(=O)Nc1ccc(Nc2c3ccccc3nc3cc([N+](=O)[O-])ccc23)cc1`, the T/C is, setting by setting: (endpoint: mean survival time, dose: 1.25 mg/kg/injection, schedule: Q01DX009 (ip), vehicle: Klucel (hydroxypropylcellulose) (HPC)) 91 % of control; (endpoint: mean survival time, dose: 1.25 mg/kg/injection, schedule: Q01DX009 (sc), vehicle: Klucel (hydroxypropylcellulose) (HPC)) 106 % of control; (endpoint: mean survival time, dose: 2.5 mg/kg/injection, schedule: Q01DX009 (ip), vehicle: Klucel (hydroxypropylcellulose) (HPC)) 87 % of control; (endpoint: mean survival time, dose: 2.5 mg/kg/injection, schedule: Q01DX009 (sc), vehicle: Klucel (hydroxypropylcellulose) (HPC)) 97 % of control; (endpoint: mean survival time, dose: 3.12 mg/kg/injection, schedule: Q01DX001 (ip), vehicle: saline) 98 % of control; (endpoint: mean survival time, dose: 5.0 mg/kg/injection, schedule: Q01DX009 (ip), vehicle: Klucel (hydroxypropylcellulose) (HPC)) 89 % of control. Also, the T/C (endpoint: mean survival time, dose: 5.0 mg/kg/injection, schedule: Q01DX009 (sc), vehicle: Klucel (hydroxypropylcellulose) (HPC)) is 103 % of control; the T/C (endpoint: mean survival time, dose: 6.25 mg/kg/injection, schedule: Q01DX001 (ip), vehicle: saline) was 98 % of control; the T/C (endpoint: mean survival time, dose: 10.0 mg/kg/injection, schedule: Q01DX009 (sc), vehicle: Klucel (hydroxypropylcellulose) (HPC)) was 102 % of control; the T/C (endpoint: mean survival time, dose: 12.5 mg/kg/injection, schedule: Q01DX001 (ip), vehicle: saline) was 101 % of control; the T/C (endpoint: mean survival time, dose: 25.0 mg/kg/injection, schedule: Q01DX001 (ip), vehicle: saline) is 101 % of control; the T/C (endpoint: mean survival time, dose: 50.0 mg/kg/injection, schedule: Q01DX001 (ip), vehicle: saline) is 90 % of control.

For the compound `CN(N=O)C(=O)NCCCCCNC(=O)N(C)N=O`, the T/C is 113 % of control (endpoint: mean survival time, dose: 210.0 mg/kg/injection, schedule: Q01DX001 (ip), vehicle: carboxymethylcellulose (CMC)) and 123 % of control (endpoint: mean survival time, dose: 420.0 mg/kg/injection, schedule: Q01DX001 (ip), vehicle: carboxymethylcellulose (CMC)).

Consider `O=NN(CCCl)C(=O)NC1CCC(O)CC1` (centres undefined), for which the T/C by setting is: (endpoint: mean survival time, dose: 13.0 mg/kg/injection, schedule: Q01DX001 (ip), vehicle: saline with Tween-80) 152 % of control; (endpoint: mean survival time, dose: 13.0 mg/kg/injection, schedule: Q01DX001 (ip), vehicle: saline) 177 % of control; (endpoint: mean survival time, dose: 20.0 mg/kg/injection, schedule: Q01DX001 (ip), vehicle: saline with Tween-80) 418 % of control; (endpoint: mean survival time, dose: 26.0 mg/kg/injection, schedule: Q01DX001 (ip), vehicle: saline) 448 % of control; (endpoint: mean survival time, dose: 30.0 mg/kg/injection, schedule: Q01DX001 (ip), vehicle: saline with Tween-80) 479 % of control; (endpoint: mean survival time, dose: 40.0 mg/kg/injection, schedule: Q01DX001 (ip), vehicle: saline) 479 % of control. Further, the T/C (endpoint: mean survival time, dose: 44.0 mg/kg/injection, schedule: Q01DX001 (ip), vehicle: saline with Tween-80) was 286 % of control; the T/C (endpoint: mean survival time, dose: 60.0 mg/kg/injection, schedule: Q01DX001 (ip), vehicle: saline) was 322 % of control; the T/C (endpoint: mean survival time, dose: 67.0 mg/kg/injection, schedule: Q01DX001 (ip), vehicle: saline with Tween-80) is 96 % of control; the T/C (endpoint: mean survival time, dose: 90.0 mg/kg/injection, schedule: Q01DX001 (ip), vehicle: saline) is 114 % of control.

In the case of `CCCCCCCCCCCCCCCCCCCCCC(=O)Nc1ccn(C2OC(CO)C(O)C2O)c(=O)n1` (centres undefined), the T/C by setting is: (endpoint: median survival time, dose: 25.0 mg/kg/injection, schedule: Q01DX009 (ip), vehicle: saline with Tween-80) 208 % of control; (endpoint: median survival time, dose: 50.0 mg/kg/injection, schedule: Q01DX009 (ip), vehicle: saline with Tween-80) 162 % of control; (endpoint: median survival time, dose: 100.0 mg/kg/injection, schedule: Q01DX009 (ip), vehicle: saline with Tween-80) 198 % of control; (endpoint: median survival time, dose: 200.0 mg/kg/injection, schedule: Q01DX009 (ip), vehicle: saline with Tween-80) 250 % of control; (endpoint: median survival time, dose: 400.0 mg/kg/injection, schedule: Q01DX009 (ip), vehicle: saline with Tween-80) 96 % of control.
